These results are taken from patent US20240180891A1, “SYNERGISTIC MODULATORS OF ALPHA-DICARBONYL DETOXIFICATION AND THEIR USE FOR INDUCING WEIGHT LOSS AND THE TREATMENT OF DIABETIC PATHOLOGIES” (Buck Institute for Research on Aging, priority 2020, published 2024).

One assay deals with C. elegans. To be noted: feeding of AGE, data not shown. The source says: MGO-derived AGEs have been found in proteins with aging and in age-related diseases (see, e.g., Li et al. (2012) J. Neurol. Sci. 317: 1-5; Cone (2005) Nat. Neurosci. 8: 571-578; Mitchell et al. (2017) Oncotarget, 8: 17453-17474; Li et al. (2012) Neurobiol. Aging 33: 1400-1410). […] To investigate the impact of specific AGEs, we provided synthesized individual AGEs and examined their biological effects. We adapted published procedures to synthesize four AGEs on a gram scale: carboxymethyl-lysine (CML), carboxyethyl-lysine (CEL), fructose-lysine (F-Ly), and methylglyoxal-derived hydroimidazolone MG-H1. CEL and MG-H1 are MGO derived AGEs while CML is glyoxal derived, and F-LY is glucose derived.

The next assay has as its system C57BL/6 mice. On the procedure:
Percent weight increases indicate the percent change from starting body weights to the weights at the end of the two-week diet. Daily food consumption was measured twice weekly.
Next, we tested if MG-H1, which is detectable in human CSF and serum (Monnier et al. (2005) Ann. N. Y. Acad. Sci. 1043: 567-581), influences feeding in mice. We gave 12 week-old WT mice 100 μM or 200 μM MG-H1 via supplementation of drinking water for two weeks.

The conditions of assay [1]: single compounds; cited from earlier work.
The conditions of assay [2]: recent human trial (Bierhaus et al.); cited from earlier work.
Another assay deals with C. elegans glod-4 mutant. Briefly: C. elegans glod-4 mutant screen of natural product library for compounds mitigating MGO toxicity. The class given is in vivo. The following applies: C. elegans and mammalian neuronal cells; Tim Tec NPL-640 library. The source says: (§1) We used C. elegans to screen for compounds that mitigate the detrimental phenotypes in the worm glod-4 mutant. […] This included alpha-lipoic acid (ALA), a drug already prescribed for diabetic neuropathy in certain countries (see, e.g., Giacco et al. (2014) Diabetes 63: 291-299).

The target of assay [3] is T1, transient receptor potential cation channel (TRPA1) (Caenorhabditis elegans, UniProt Q18297).
T1 sequence (Q18297 1-1211): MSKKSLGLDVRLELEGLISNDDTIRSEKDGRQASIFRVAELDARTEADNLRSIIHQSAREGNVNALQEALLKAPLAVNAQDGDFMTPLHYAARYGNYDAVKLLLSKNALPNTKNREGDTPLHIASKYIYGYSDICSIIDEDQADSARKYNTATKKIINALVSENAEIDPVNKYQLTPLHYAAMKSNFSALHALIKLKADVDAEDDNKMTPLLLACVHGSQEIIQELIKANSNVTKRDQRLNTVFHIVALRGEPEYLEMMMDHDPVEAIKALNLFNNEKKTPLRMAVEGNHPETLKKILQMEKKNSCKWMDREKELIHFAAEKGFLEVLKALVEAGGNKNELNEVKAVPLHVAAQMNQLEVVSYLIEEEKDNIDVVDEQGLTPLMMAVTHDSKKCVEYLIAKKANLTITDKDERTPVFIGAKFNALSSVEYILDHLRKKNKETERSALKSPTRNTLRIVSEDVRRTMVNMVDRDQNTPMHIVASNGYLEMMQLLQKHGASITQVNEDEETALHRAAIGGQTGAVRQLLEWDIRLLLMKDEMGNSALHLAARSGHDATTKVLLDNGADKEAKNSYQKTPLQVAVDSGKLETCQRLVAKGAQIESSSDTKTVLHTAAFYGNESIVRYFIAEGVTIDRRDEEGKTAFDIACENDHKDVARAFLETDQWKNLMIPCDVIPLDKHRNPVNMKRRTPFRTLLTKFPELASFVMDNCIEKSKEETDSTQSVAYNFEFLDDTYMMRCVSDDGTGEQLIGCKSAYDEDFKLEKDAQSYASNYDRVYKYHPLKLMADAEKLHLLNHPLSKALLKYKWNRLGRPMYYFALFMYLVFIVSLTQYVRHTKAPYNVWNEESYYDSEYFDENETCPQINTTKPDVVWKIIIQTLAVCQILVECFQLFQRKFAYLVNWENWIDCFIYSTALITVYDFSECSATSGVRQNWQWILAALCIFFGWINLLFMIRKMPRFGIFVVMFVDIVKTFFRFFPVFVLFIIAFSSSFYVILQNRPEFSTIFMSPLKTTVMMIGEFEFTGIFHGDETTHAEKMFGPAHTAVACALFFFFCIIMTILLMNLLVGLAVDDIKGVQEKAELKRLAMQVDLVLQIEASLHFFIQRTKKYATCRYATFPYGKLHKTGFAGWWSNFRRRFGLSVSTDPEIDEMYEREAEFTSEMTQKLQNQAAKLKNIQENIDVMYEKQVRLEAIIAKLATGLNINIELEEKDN
As to the kind of experiment: ALA mechanism: TRPA1 activation and glyoxalase expression. The arrangement: species or system C. elegans.
Description: FIG. 4 illustrates a proposed model for how MGO is sensed by TRPA1 to activate SKN-1/Nrf2 and mediate detoxification of MGO through downstream glyoxalases in worms and mammals. MGO is sensed by TRPA-1 leading to the activation of SKN-1/Nrf2 pathway. This in turn activates downstream glyoxalases GLO1 and DJ1 (Id.).
as §1

Where [4] appears, read: higher dose (200 μM) in drinking water, two weeks.

For the compound `CC1NC(NCCC[C@H](N)C(=O)O)=NC1=O` (some centres unmarked) [MG-H1, hydroimidazolone Nδ-(5-hydro-5-methyl-4-imidazolon-2-yl) ornithine], in the assay on C. elegans, the food intake entry is “enhances food intake” and the triglyceride content entry is given as “increases triglyceride content”. Moreover, in the assay on C57BL/6 mice (data not shown), the hourly food intake entry is “increase in hourly food intake” and the water intake result is on record as “relatively similar water intake”. Besides, in the assay on C57BL/6 mice (higher dose), the energy expenditure result is “reactive increase” and the oxygen consumption result was “reactive increase”. Further, in the assay with C57BL/6 mice (setting [4]), the body weights entry was “significant increase” and the food intake entry is listed as “significant increase”.

In the case of `NC(=O)c1cccnc1` [nicotinamide], the protection against obesity entry in assay [1] is given as “protect against obesity”.

In the case of `O=C(O)CCCCC1CCSS1` (stereo not drawn) [alpha-lipoic acid, 1,2-dithiolane-3-pentanoic acid], the weight result in assay [2] is recorded as “effectiveness in reducing weight”. Besides, the “amelioration of deleterious effects of MGO toxicity” value with C. elegans glod-4 mutant is “ameliorate the deleterious effects of MGO toxicity”. Moreover, in assay [3], the TRPA1 activation entry is reported as “activates”; the “expression of glyoxalases (DJ1 and GLO1)” value is given as “enhancing the expression”. The protection against obesity result in assay [1] is listed as “protect against obesity”.
